According to publication PMC11484942, “Rumicidins are a family of mammalian host-defense peptides plugging the 70S ribosome exit tunnel” (Nature Communications, 2024):
Like-named read-outs stand apart in the source and are kept apart here. Bridge positions count the residues as written; N and C are the ends. Square brackets hold non-standard residues; d marks the D form. Ends that are not written are not given here. Peptide text beside a SMILES is read from it. * marks the point of attachment. X1 = CC[C@H](C)CCCCC(=O)*; Dab = NCC[C@H](N)C(=O)O

Tests used:
[1] = test system: E. coli BW25113 ΔtolC pDualrep2; test: pDualrep2 double-reporter assay; type: cell-based, Escherichia coli; settings: agar plate, overnight 37 °C
Description: For in vivo bioactivity test, the reporter strain BW25113 ΔtolC-pDualrep2 was used as previously described. Briefly, 10 µL of solutions of tested peptides (0.2 mM of full-length rumicidin isoforms; 0.5 mM of Rum-1[1-22] and Rum-1[9-29]) were applied to an agar plate contained a lawn of the reporter strain. 5 mg/ml erythromycin (Ery, 1 µL) and 25 µg/ml levofloxacin (Lev, 1 µL) solutions were used as control samples. After being incubated overnight at 37 °C, the plate was scanned by ChemiDoc (Bio-Rad) using “Cy3-blot” settings for RFP and “Cy5-blot” for the Katushka2S protein. At least, two independent experiments were performed, and the observed effects were the same.

E. coli 1057 WT = test: microbe, parasite or virus in culture; type: cell-based, Escherichia coli; settings: MHB + 0.9% NaCl
Description: Minimum inhibitory concentrations (MIC) were determined by broth microdilution assay based on Clinical and Laboratory Standards Institute (CLSI) guidelines using BSA in the growth medium to minimize AMP nonspecific adsorption[49]. Bacterial test cultures were grown in the Mueller-Hinton broth (MHB, Sigma) at 37 °C to mid-log phase and then diluted with the 2× MH medium supplemented with 1.8% NaCl (or without salt) so that to reach a final cell concentration of 10^6 CFU/mL. 50 µL of the obtained bacterial suspension were added to aliquots of 50 µL of the peptide solutions serially diluted with sterilized 0.1% bovine serum albumin (BSA) in 96-well flat-bottom polystyrene microplates (Eppendorf #0030730011). […] To verify MIC values, the respiratory activity of the bacteria was determined. Briefly, 5 µL of 0.5 mg/mL resazurin (Sigma) was added to the wells after 24 h (or after 48 h for M. smegmatis) of incubation, and the plate was incubated for additional 3 h. In some cases, MICs were determined in the Lysogeny Broth (LB) or Middlebrook 7H9 medium. The reduction of resazurin to resorufin was recorded. […] The results were expressed as the median values determined based on at least three independent experiments performed in triplicate.

[2] = test system: E. coli 1057 R2 (rpoS^Q3stop, macB^N470D); settings: MHB + 0.9% NaCl
Description: Minimum inhibitory concentrations (MIC) were determined by broth microdilution assay based on Clinical and Laboratory Standards Institute (CLSI) guidelines using BSA in the growth medium to minimize AMP nonspecific adsorption. Bacterial test cultures were grown in the Mueller-Hinton broth (MHB, Sigma) at 37 °C to mid-log phase and then diluted with the 2× MH medium supplemented with 1.8% NaCl (or without salt) so that to reach a final cell concentration of 10^6 CFU/mL. 50 µL of the obtained bacterial suspension were added to aliquots of 50 µL of the peptide solutions serially diluted with sterilized 0.1% bovine serum albumin (BSA) in 96-well flat-bottom polystyrene microplates (Eppendorf #0030730011). […] To verify MIC values, the respiratory activity of the bacteria was determined. Briefly, 5 µL of 0.5 mg/mL resazurin (Sigma) was added to the wells after 24 h (or after 48 h for M. smegmatis) of incubation, and the plate was incubated for additional 3 h. In some cases, MICs were determined in the Lysogeny Broth (LB) or Middlebrook 7H9 medium. The reduction of resazurin to resorufin was recorded. […] The results were expressed as the median values determined based on at least three independent experiments performed in triplicate.
(§1) Resistance induction experiments were performed using the previously described method. This approach allows for monitoring MIC values after each transfer. Briefly, on the first day, the overnight culture of the wild-type bacteria was diluted with the 2× MHB supplemented with 1.8% NaCl (or without salt) to reach a final cell concentration of 10^6 CFU/mL. 50 µL of the obtained bacterial suspension were added to aliquots of 50 µL of the peptide solutions serially diluted with the sterilized 0.1% BSA in 96-well flat-bottom polystyrene microplates. After incubation for 20 ± 2 h at 37 °C and 950 rpm, MICs were determined as described above. For each subsequent daily transfer, 2–4 μL of the inoculum taken from the first well containing a sub-inhibitory drug concentration was diluted with 2 mL of the fresh 2× MHB supplemented with 1.8% NaCl (or without salt). […] Multiple repeated passages in the presence of antimicrobial agents were performed for each bacterial strain during the experiment. Bacteria that grew at the highest concentrations of AMPs on the final day were passaged further 3 times on drug-free agar plates before determining the final MIC value.

E. coli 1057 = test: Serial passage resistance induction; type: cell-based, Escherichia coli; settings: serial passages, both media (MHB ±0.9%NaCl)
Description: as §1, with “Briefly, on the first day, the overnight culture of the wild-type bacteria was diluted with the 2× MHB supplemented with 1.8% NaCl (or without salt) to reach a final cell concentration of 10^6 CFU/mL. 50 µL of the obtained bacterial suspension were added to aliquots of 50 µL of the peptide solutions serially diluted with the sterilized 0.1% BSA in 96-well flat-bottom polystyrene microplates.” left out

70S initiation complexes = test: Peptide bond formation (fMet-[14C]Val dipeptide); type: biochemical; settings: 30 µM amicoumacin A; 2 min 37 °C; three replicates; intact complexes 77 ± 5%
Description: Initiation complexes and ternary complexes were prepared as described previously[21],[59]. Where necessary initiation complexes were supplemented with rumicidin-1 (1 μM) or amicoumacin A (30 μM) followed by additional incubation for 5 min at 37 °C. To analyze formation of dipeptide fMet-Val, 0.2 μM 70S initiation complexes containing fMet-tRNA^fMet in the P site were mixed with 0.375 μM ternary complexes EF-Tu⋅GTP⋅[^14C]Val-tRNA^Val (444 dpm/pmol) and incubated for 2 min at 37 °C. Then samples were quenched with 1/10 volume of 5 M KOH and hydrolyzed for 30 min at 37 °C. Samples were neutralized with 1/10 volume of glacial acetic acid and analyzed by reversed-phase HPLC on RP8 (Merck) with an acetonitrile gradient in 0.1% trifluoroacetic acid. Percentage of synthesized dipeptide was determined by incorporation of the radioactive label as a ratio of peptide formed to the amount of the 70S ribosomes in the reaction mixture, as described earlier. Experiments were done in three replicates.

E. coli strains = settings: cited from earlier work
Description: This highly cationic fragment is important for both high affinity binding of Bac7 to the ribosome and its penetration inside bacterial cells. The effect of N-terminal shortening of rumicidin-1 was not so marked: activities of the analogs 4-29 and 6-29 decreased only two-fold, while the MIC values of the analogs 9-29 and 11-29 against E. coli were ≥4- ...

E. coli BW25113 = test: MIC broth microdilution; type: cell-based, Escherichia coli; settings: 24 h 37 °C, median of ≥3 experiments; for Minimum inhibitory concentration MHB: Mueller-Hinton broth without salt
Description: (§2) The reduction of resazurin to resorufin was recorded.

E. coli BW25113 ΔsbmA = type: cell-based, Escherichia coli
Description: as §2

E. cloacae XDR CI 4172 = type: cell-based, Enterobacter cloacae; settings: XDR CI 4172, 24 h
Description: as §2

S. aureus ATCC 29213 = type: cell-based, Staphylococcus aureus; settings: ATCC 29213, 24 h
Description: as §2

[3] = test system: Mycobacterium smegmatis mc(2)155; type: cell-based; settings: Mycobacterium mc(2)155, 24 h
Description: as §2

[4] = test system: human red blood cells (hRBC); test: Hemolysis (hemoglobin release assay); type: cell-based; settings: mean
Description: (§3) Hemolytic activity of the peptides was tested against the fresh suspension of human red blood cells (hRBC) using the hemoglobin release assay as described previously. Two experiments were performed with the hRBC from blood samples collected from healthy donors by certified medical personnel upon informed written consent. All procedures were approved by the Ethics Committee of the Institute of Experimental Medicine (protocol 1/20 of 2/27/2020) and comply with the ethical principles of the Declaration of Helsinki. The quantitative data were represented as average means with standard deviations. The colorimetric 3-(4,5-dimethylthiazol-2-yl)-2,5-diphenyltetrazolium bromide (MTT) dye reduction assay was used to determine cytotoxicity of the peptides against human keratinocyte cell line (HaCaT) and transformed human embryonic kidney cells (HEK293T). Both cell lines were purchased from American Type Culture Collection (ATCC). 10^4 cells per well in Dulbecco’s modified Eagle’s medium (DMEM/F12) supplemented with 10% fetal bovine serum (FBS, Invitrogen) were placed into 96-well plates and then cultured in the CO2-incubator (5% CO2, 37 °C). After the media were removed, the peptides were dissolved in 100 µL of the same medium and added to cell cultures at different final concentrations. 20 h later, 20 μL of MTT (5 mg/mL, Sigma) was added to each well, and the plates were incubated for 4 h at 37 °C. Then, the media were discarded and 100 µL DMSO-isopropanol mixture at a ratio of 1:1 (v/v) was added to each well to dissolve the crystallized formazan. The absorbance at 570 nm was measured by a microplate reader AF2200 (Eppendorf). An optical density in the wells containing cells cultured without the peptides was assumed to represent 100% cell viability. Two independent experiments were performed for each peptide.

[5] = test system: HEK293T (transformed embryonic kidney cells); test: MTT cytotoxicity; type: cell-based, human; settings: mean
Description: as §3

HaCaT (keratinocytes) = test: MTT cytotoxicity; type: cell-based, human
Description: as §3

E. coli = type: cell-based, Escherichia coli
Description: of bacterial cells washed with sodium phosphate buffer, whereas the addition of 0.9% NaCl and/or divalent cations minimized or even abolished the activity (Supplementary Fig. 14). The same was true for Bac7[1-22] in most cases (Supplementary Fig. 14), except for the maximum […]
“NaPB + 0.9% NaCl”), at which significant outer membrane damage was observed. Thus, in the context of the host immune system operating in a complex environment containing NaCl and divalent cations, the most likely scenario is that rumicidin's ability to disrupt the integrity of the outer membrane is suppressed. Antibacterial activity of rumicidin-1 is inhibited in the presence […]
mixture, respectively), and the electrical double layer around the cell seems to be a key barrier on the way into the cell of highly charged and relatively hydrophilic PrAMP. Perhaps, translocation of rumicidin-1 into the periplasmic space depends on electrostatic interaction with the outer membrane followed by porin-mediated uptake (the gene knockout of ompF resulted in a 4-fold increase in MIC, Fig. 5a). […]
Fig. 4), (iv) experiments on inhibition of peptide bond formation Supplementary Fig. 5, and (v) structural studies of the rumicidin complex with the ribosome by Cryo-EM (Fig.4).
Point 2. Authors claim that the effect of these peptides on membrane integrity may be due to the presence of aromatic Trp and Phe residues in their structure. However, effect of the rumicidin-1 variant W23A,F24A is not shown.
To fill this gap, we performed a comparative analysis of the ability of rumicidin-1 and its analogue [W23A,F24A] to increase the permeability of E. coli membranes under different environmental conditions. In all cases in the […]

## CC[C@H]1OC(=O)[C@H](C)[C@@H](O[C@H]2C[C@@](C)(OC)[C@@H](O)[C@H](C)O2)[C@H](C)[C@@H](O[C@@H]2O[C@H](C)C[C@H](N(C)C)[C@H]2O)[C@](C)(O)C[C@@H](C)C(=O)[C@H](C)[C@@H](O)[C@]1(C)O [Erythromycin]
[1]
  reporter induction: strongly induced biosynthesis of Katushka2S, but not of RFP
E. coli 1057 WT; Escherichia coli, 1057WT, 24 h
  MIC: 1020 µM

## CC[C@H](C)CCCCC(=O)N[C@@H](CCN)C(=O)N[C@H](C(=O)N[C@@H](CCN)C(=O)N[C@H]1CCNC(=O)[C@H]([C@@H](C)O)NC(=O)[C@H](CCN)NC(=O)[C@H](CCN)NC(=O)[C@H](CC(C)C)NC(=O)[C@@H](Cc2ccccc2)NC(=O)[C@H](CCN)NC1=O)[C@@H](C)O [Polymyxin B] (X1-[Dab]T[Dab][Dab][Dab][dF]L[Dab][Dab]T; lactam 4-C (inferred); N-terminus assumed)
E. coli 1057 WT
  MIC: 0.062 µM
[2]
  MIC: 4 µM
E. coli 1057
  fold increase in MIC values under selection: 128 fold

## CC(C)C[C@H](NC(=O)[C@@H](O)[C@@H](O)[C@@H](N)CC(N)=O)[C@@H]1Cc2cccc(O)c2C(=O)O1 [amicoumacin A]
70S initiation complexes
  fMet-[14C]Val dipeptide formed: 72 ± 7%

## Bac7[5-23]: Bac7 fragment lacking four N-terminal residues (RRIR) (PRPPRLPRPRPRPLPFPRP; Bactenecin-7; UniProt P19661 135-153, looked up, fragment)
E. coli strains
  fold increase in MIC on deletion of four N-terminal residues (RRIR): ≥ 16 fold

## Bac7[5-35]: Bac7 fragment lacking four N-terminal residues (RRIR) (PRPPRLPRPRPRPLPFPRPGPRPIPRPLPFP; Bactenecin-7; UniProt P19661 135-165, looked up, fragment)
E. coli strains
  fold increase in MIC on deletion of four N-terminal residues (RRIR): ≥ 16 fold

## RARRPRPPKPRPPHRPRPRPRPWFPPRFP [Rumicidin-1]
E. coli BW25113; Mueller-Hinton broth + 0.9% NaCl, listed as WT
  Minimum inhibitory concentration MHB + 0.9% NaCl: 4 to 8 µM
E. coli BW25113
  Minimum inhibitory concentration MHB: 1 µM
E. coli BW25113; listed as WT
  Minimum inhibitory concentration MHB: 2 µM
E. coli BW25113 ΔsbmA; MHB + 0.9% NaCl
  MIC: ≥ 64 µM
E. coli BW25113 ΔsbmA; salt-free MHB
  MIC: 1 µM
E. cloacae XDR CI 4172
  MIC E. cloacae XDR CI 4172: 2 µM
S. aureus ATCC 29213
  MIC S. aureus ATCC 29213: > 32 µM
[3]
  MICs depending on the test medium: 0.125 to 0.5 µM
[4]; 0.25 µM
  Hemolysis: 0.134%
[4]; 0.5 µM
  Hemolysis: 0.357%
[4]; 1 µM
  Hemolysis: 0.408%
[4]; 2 µM
  Hemolysis: 0.624%
[4]; 4 µM
  Hemolysis: 0.667%
[4]; 8 µM
  Hemolysis: 0.801%
[4]; 16 µM
  Hemolysis: 0.83%
[4]; 32 µM
  Hemolysis: 0.911%
[4]; 64 µM
  Hemolysis: 0.932%
[5]; 1 µM
  HEK293T cell viability: 105.704%
[5]; 2 µM
  HEK293T cell viability: 104.142%
[5]; 4 µM
  HEK293T cell viability: 106.626%
[5]; 8 µM
  HEK293T cell viability: 103.664%
[5]; 16 µM
  HEK293T cell viability: 105.32%
[5]; 32 µM
  HEK293T cell viability: 89.704%
[5]; 64 µM
  HEK293T cell viability: 72.479%
HaCaT (keratinocytes); 1 µM
  HaCaT cell viability: 104.258%
HaCaT (keratinocytes); 2 µM
  HaCaT cell viability: 105.615%
HaCaT (keratinocytes); 4 µM
  HaCaT cell viability: 107.778%
HaCaT (keratinocytes); 8 µM
  HaCaT cell viability: 104.973%
HaCaT (keratinocytes); 16 µM
  HaCaT cell viability: 107.318%
HaCaT (keratinocytes); 32 µM
  HaCaT cell viability: 107.645%
HaCaT (keratinocytes); 64 µM
  HaCaT cell viability: 99.839%
E. coli; MH medium with NaCl
  MIC: 4 µM
E. coli; MH medium with NaCl and divalent cations (mixture)
  MIC: 16 to 32 µM
E. coli; MH medium with divalent cations
  MIC: 8 µM
E. coli; salt-free MH medium
  MIC: 1 µM
